US8372846B2, “Co-crystals and pharmaceutical compositions comprising the same” (Vertex Pharmaceuticals Incorporated, priority 2006, dated 2013)

Assay: Solubility analyses in simulated intestinal fluid (HPLC of supernatant; solid form by XRPD)
Type: physicochemical
Conditions: simulated intestinal fluid (pH 6.8); for XRPD (solid form): room temp.; for C, mg/mL Control: room temperature, VX-950 equivalents
Description: An aliquot of the sample was placed in a tube and then an aqueous medium was added. At set time points, an aliquot of supernatant was withdrawn, filtered through 0.45 PTFE micron filter (Millex, LCR, Millipore) and processed for high performance liquid chromatography (HPLC) analysis (Agilent 1100; Palo Alto, Calif., USA). The system was equipped with an autosampler set at 25° C. For the sample handling, an aliquot of the sample was diluted with acetonitrile at 1 to 1 by v/v ratio. The samples were run isocratically with the detector set at 270 nm. The column was XTerra® Phenyl column 150 mm×4.6 mm, 3.5 μm Particle Size (P/N 186001144) (Waters, Milford, Mass., USA). The mobile phase was potassium phosphate buffer (10 mM, pH=7.0):methanol at 60:40 (v/v) ratio. The run was done at the flow-rate of 1 mL/min and was completed within 15 min.

For CCC[C@H](NC(=O)[C@@H]1[C@H]2CCC[C@H]2CN1C(=O)[C@@H](NC(=O)[C@@H](NC(=O)c1cnccn1)C1CCCCC1)C(C)(C)C)C(=O)C(=O)NC1CC1 [VX-950 alone], the “XRPD (solid form)” value (24 hours) was “Crystallizes by 24 hour”, the “XRPD (solid form)” value (up to 2 hours) was “Amorphous (up to 2 hours” and the “C, mg/mL Control” value (24 hour) was “Not”. For the same molecule, the “C, mg/mL Control” value (line with XRPD 'by about 4 hours') was 0.0183 mg/mL and the “C, mg/mL Control” value (line with XRPD 'up to 2 hours') was 0.025 mg/mL.
